These results are taken from patent US5328900A, “Anti-thrombotic peptide and pseudopeptide derivatives” (Rhone-Poulenc Rorer Pharmaceuticals Inc., priority 1992, dated 1994).

Where a SMILES comes first, the peptide text is derived from it. [ ]: non-standard residue; d: D form. Aze = O=C(O)[C@@H]1CCN1; Inp = O=C(O)C1CCNCC1 Where only a bound is given, the exact number is not on record here.

The target of experiment [1] is T1, fibrinogen binding to thrombin-stimulated platelets (Homo sapiens, UniProt P05106+P08514).
T1 construct: endogenous in cells; host or cells: washed platelets stimulated with human alpha-thrombin
Put plainly: Inhibition of radiolabeled (125I) fibrinogen binding assay. Here is the method:
I. Inhibition of Radiolabeled (^125 I) Fibrinogen Binding Assay, which is essentially based on the method described in Proc. Natl. Acad. Sci. USA Vol. 83, pp. 5708-5712, August 1986, and is as follows.
Platelets are washed free of plasma constituents by the albumin density-gradient technique. In each experimental mixture platelets in modified Tyrode's buffer are stimulated with human α-thrombin at 22°-25° C. for 10 minutes (3.125×10" platelets per liter and thrombin at […]). Hirudin is then added at a 25-fold excess for 5 minutes before addition of the radiolabeled ligand and any competing ligand. After these additions, the final platelet count in the mixture is 1×10"/liter. After incubation for an additional 30 minutes at 22°-25° C., bound and free ligand are separated by centrifuging 50 μl of the mixture through 300 μl of 20% sucrose at 12,000×g for 4 minutes. The platelet pellet is then separated from the rest of the mixture to determine platelet-bound radioactivity. Nonspecific binding is measured in mixtures containing an excess of unlabeled ligand. When binding curves are analyzed by Scatchard analysis, nonspecific binding is derived as a fitted parameter from the binding isotherm by means of a computerized program. […]

For experiment [2], the system named is Human platelets. Put plainly: Inhibition of fibrinogen-mediated platelet aggregation. It is filed as cell-based. The settings on record: for IC50: thrombin-activated human platelets, rate of aggregation. Here is the method:
II. Inhibition of Fibrinogen-Mediated Platelet Aggregation, which is essentially based on the method described in Blood, Vol. 66, No. 4, October 1985, pp. 946-952, and is as follows.
Human platelets were isolated from freshly drawn whole blood and were suspended in 0.14 mol/L NaCl, 2.7 mmol/L […], 12 mmol/L NaHCO3, 0.42 mmol/L Na2 HPO4, 0.55 mmol/L glucose, and 5 mmol/L Hepes, pH 7.35 at 2×10^8 platelets/ml. The suspension was incubated at 37° C. An aliquot of 0.4 ml of platelet suspension was activated by human thrombin at a final concentration of 2 μg/ml of thrombin for one minute. After one minute the reaction was stopped by a thrombin inhibitor. Serial dilution of the compound being tested was then added to the activated platelet, the reaction was allowed to proceed for one minute, followed by the addition of human fibrinogen at a final concentration of […] of fibrinogen. Platelet aggregation was then recorded by an aggregometer. Rate of aggregation was used to calculate IC50.

As usually defined, the IC50 is the concentration at which inhibition is half-maximal. A high value points to weaker potency in that assay.

T1 sequence (P08514 32-887 limits assumed): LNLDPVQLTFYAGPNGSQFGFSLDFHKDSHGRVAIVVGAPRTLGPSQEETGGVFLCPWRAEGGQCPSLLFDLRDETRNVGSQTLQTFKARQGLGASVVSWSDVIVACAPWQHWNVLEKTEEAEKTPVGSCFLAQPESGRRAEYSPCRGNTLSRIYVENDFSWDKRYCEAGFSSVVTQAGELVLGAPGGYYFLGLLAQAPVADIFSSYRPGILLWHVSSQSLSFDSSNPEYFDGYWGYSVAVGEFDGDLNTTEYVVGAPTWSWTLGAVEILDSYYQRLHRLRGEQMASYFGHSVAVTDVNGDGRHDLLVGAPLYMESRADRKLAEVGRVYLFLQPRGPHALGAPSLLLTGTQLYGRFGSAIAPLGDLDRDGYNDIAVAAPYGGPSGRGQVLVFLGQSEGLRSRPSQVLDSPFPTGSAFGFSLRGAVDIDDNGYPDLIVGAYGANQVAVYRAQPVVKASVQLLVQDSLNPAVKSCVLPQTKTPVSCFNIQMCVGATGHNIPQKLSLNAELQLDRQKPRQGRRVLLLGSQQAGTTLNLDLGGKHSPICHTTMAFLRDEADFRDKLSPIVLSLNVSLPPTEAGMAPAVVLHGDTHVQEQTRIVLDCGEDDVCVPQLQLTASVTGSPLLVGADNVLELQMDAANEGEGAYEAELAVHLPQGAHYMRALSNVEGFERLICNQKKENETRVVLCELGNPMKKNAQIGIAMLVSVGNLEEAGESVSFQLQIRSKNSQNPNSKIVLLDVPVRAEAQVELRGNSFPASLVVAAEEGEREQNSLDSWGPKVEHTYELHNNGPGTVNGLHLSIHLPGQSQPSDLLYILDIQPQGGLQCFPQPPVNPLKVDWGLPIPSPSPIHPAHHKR
T1 sequence (P08514 891-1039 partner limits assumed): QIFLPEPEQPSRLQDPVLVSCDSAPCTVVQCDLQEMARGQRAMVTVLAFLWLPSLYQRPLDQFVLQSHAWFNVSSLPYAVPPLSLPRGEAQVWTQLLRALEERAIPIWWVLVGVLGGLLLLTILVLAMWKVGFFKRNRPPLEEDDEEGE
T1 sequence (P05106 27-788): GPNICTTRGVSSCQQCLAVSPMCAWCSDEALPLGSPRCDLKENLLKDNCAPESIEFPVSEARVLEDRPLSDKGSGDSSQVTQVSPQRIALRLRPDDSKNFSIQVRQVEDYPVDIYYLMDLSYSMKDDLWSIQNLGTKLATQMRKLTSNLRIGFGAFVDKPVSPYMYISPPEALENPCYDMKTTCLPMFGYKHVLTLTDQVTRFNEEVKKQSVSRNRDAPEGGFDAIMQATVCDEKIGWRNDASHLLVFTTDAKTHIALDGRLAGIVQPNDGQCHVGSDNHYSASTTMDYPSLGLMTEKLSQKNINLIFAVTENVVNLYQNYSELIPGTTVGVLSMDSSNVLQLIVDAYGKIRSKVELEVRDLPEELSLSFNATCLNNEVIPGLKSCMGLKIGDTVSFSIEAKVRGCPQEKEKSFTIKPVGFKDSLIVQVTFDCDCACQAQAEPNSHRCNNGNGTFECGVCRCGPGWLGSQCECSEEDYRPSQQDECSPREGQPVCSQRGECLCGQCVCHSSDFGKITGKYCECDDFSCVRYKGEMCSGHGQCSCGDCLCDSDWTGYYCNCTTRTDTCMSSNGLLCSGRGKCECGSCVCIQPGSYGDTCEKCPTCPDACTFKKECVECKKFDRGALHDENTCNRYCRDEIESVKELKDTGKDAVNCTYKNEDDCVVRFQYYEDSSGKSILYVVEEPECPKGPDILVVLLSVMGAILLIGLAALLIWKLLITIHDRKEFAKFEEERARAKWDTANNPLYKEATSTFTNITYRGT

As to `CC(C)[C@H](NC(=O)[C@H](CC(=O)O)NC(=O)[C@@H]1CCN1C(=O)C1CCNCC1)C(=O)O` [N-[2(S)-1-(piperidin-4-yl-carbonyl)azetidin-2-yl-carbonyl]-L-aspartyl-L-valine] (H-[Inp][Aze]DV-OH), the IC50 in experiment [1] (thrombin-stimulated washed platelets, 125I-fibrinogen 0.176 μmol/liter) was > 64 µM; in experiment [2], 29.6 µM. The “Inhibition of Fibrinogen Mediated Platelet Aggregation % inhibition at 25 μM” value in experiment [2] is 47%.

In the case of `CC(C)[C@H](NC(=O)[C@H](CC(=O)O)NC(=O)[C@@H]1CCN1C(=O)C1CCN(C(=N)N)CC1)C(=O)O` [N-[2(S)-1-(amidinopiperidin-4-yl-carbonyl)-azetidin-2-yl-carbonyl]-L-aspartyl-L-valine], in experiment [1] (25 μM), the “Inhibition of 125I-fibrinogen binding, extent at 25 μM” value was 15%. In experiment [2], the “Inhibition of Fibrinogen Mediated Platelet Aggregation % inhibition at 25 μM” value is recorded as 15% and the IC50 was > 200 µM.
